The values that follow come from ChEMBL document CHEMBL1201862, “PubChem BioAssay data set” (2004).

Calls of active or inactive are those of the source. Some results are limits rather than exact numbers.

The target of assay [1] is T1, Ubiquitin-conjugating enzyme E2 N (Homo sapiens, UniProt P61088).
T1 sequence (P61088 whole entry): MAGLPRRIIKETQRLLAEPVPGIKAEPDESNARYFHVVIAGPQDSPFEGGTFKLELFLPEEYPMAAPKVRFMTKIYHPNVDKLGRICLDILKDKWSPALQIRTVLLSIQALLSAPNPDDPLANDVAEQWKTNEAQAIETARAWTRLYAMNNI
Format: functional.

The next assay addresses T2, Bcl-2-related protein A1 (Mus musculus, UniProt Q07440).
T2 sequence (Q07440 whole entry): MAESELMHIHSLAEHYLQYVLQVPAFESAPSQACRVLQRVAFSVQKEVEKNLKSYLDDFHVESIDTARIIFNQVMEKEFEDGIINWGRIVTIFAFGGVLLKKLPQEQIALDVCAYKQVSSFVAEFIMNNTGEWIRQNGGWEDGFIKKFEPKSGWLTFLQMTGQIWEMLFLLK
The assay is classed as functional.

For assay [2], the target named is T1, Ubiquitin-conjugating enzyme E2 N. The assay is classed as functional. The source holds these as a separate data set.
Assay [3] addresses T3, Short transient receptor potential channel 4 (Mus musculus, UniProt Q9QUQ5).
T3 sequence (Q9QUQ5 whole entry): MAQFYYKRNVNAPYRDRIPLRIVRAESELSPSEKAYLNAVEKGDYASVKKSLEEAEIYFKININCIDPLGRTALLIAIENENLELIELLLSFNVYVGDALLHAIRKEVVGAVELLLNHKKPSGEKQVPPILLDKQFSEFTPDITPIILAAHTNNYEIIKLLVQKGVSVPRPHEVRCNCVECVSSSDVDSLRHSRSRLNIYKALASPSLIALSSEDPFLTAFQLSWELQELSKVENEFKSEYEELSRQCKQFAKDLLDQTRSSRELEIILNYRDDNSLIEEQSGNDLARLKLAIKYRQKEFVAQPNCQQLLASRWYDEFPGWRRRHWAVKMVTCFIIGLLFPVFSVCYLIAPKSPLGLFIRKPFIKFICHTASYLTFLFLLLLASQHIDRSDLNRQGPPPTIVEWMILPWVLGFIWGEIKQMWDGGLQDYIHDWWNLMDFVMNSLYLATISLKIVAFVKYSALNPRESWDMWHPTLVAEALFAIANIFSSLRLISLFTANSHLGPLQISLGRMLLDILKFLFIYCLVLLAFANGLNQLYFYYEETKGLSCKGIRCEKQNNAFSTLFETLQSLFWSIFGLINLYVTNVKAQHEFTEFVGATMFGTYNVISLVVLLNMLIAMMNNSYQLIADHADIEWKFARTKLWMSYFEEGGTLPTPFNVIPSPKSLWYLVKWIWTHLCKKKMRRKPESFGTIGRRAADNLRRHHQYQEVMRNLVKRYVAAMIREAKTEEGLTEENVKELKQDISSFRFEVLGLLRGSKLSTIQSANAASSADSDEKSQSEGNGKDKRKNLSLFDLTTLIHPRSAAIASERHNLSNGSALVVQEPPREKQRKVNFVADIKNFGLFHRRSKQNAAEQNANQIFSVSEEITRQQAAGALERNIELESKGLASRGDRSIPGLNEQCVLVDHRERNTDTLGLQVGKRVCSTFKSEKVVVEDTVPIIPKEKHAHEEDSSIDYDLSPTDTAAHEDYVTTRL
As to the kind of experiment: mouse TRPC4 channel inhibitors, dose response, cell-based, HEK293 TRPC4/mu-opioid, Fluo-4 calcium (AID 434942).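 Note: potency of inhibitors blocking the TRPC4 calcium response.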 The assay is classed as functional.

Assay [4] deals with T3, Short transient receptor potential channel 4. Briefly: mouse TRPC4 channel activators, dose response, cell-based, HEK293 TRPC4/mu-opioid, Fluo-4 calcium (AID 434937). Format: functional.
Assay [5] in a line: growth suppression of beta-catenin-knockout colon cells, dose response, cell-based, HCT116, human colon tumor (AID 1045).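 Note: HCT116 colon tumor cells with beta catenin knocked out; cells exposed to compound for 60 hours.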 The assay is classed as functional.
Assay [6] can be described thus: growth suppression of PTEN-null colon cells, dose response, cell-based, HCT116 PTEN knockout (AID 1047).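 Note: HCT116 colon tumor cells with PTEN knocked out; cells exposed to compound for 60 hours before readout; potency for loss of cell viability measured by luminescence.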 Format: functional.
For assay [7], the target named is Voltage-dependent T-type calcium channel subunit alpha-1H (Homo sapiens, UniProt O95180). Format: functional.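 Note: channel activity triggered by adding a high calcium stimulation buffer.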
Sequence of Voltage-dependent T-type calcium channel subunit alpha-1H (O95180 whole entry): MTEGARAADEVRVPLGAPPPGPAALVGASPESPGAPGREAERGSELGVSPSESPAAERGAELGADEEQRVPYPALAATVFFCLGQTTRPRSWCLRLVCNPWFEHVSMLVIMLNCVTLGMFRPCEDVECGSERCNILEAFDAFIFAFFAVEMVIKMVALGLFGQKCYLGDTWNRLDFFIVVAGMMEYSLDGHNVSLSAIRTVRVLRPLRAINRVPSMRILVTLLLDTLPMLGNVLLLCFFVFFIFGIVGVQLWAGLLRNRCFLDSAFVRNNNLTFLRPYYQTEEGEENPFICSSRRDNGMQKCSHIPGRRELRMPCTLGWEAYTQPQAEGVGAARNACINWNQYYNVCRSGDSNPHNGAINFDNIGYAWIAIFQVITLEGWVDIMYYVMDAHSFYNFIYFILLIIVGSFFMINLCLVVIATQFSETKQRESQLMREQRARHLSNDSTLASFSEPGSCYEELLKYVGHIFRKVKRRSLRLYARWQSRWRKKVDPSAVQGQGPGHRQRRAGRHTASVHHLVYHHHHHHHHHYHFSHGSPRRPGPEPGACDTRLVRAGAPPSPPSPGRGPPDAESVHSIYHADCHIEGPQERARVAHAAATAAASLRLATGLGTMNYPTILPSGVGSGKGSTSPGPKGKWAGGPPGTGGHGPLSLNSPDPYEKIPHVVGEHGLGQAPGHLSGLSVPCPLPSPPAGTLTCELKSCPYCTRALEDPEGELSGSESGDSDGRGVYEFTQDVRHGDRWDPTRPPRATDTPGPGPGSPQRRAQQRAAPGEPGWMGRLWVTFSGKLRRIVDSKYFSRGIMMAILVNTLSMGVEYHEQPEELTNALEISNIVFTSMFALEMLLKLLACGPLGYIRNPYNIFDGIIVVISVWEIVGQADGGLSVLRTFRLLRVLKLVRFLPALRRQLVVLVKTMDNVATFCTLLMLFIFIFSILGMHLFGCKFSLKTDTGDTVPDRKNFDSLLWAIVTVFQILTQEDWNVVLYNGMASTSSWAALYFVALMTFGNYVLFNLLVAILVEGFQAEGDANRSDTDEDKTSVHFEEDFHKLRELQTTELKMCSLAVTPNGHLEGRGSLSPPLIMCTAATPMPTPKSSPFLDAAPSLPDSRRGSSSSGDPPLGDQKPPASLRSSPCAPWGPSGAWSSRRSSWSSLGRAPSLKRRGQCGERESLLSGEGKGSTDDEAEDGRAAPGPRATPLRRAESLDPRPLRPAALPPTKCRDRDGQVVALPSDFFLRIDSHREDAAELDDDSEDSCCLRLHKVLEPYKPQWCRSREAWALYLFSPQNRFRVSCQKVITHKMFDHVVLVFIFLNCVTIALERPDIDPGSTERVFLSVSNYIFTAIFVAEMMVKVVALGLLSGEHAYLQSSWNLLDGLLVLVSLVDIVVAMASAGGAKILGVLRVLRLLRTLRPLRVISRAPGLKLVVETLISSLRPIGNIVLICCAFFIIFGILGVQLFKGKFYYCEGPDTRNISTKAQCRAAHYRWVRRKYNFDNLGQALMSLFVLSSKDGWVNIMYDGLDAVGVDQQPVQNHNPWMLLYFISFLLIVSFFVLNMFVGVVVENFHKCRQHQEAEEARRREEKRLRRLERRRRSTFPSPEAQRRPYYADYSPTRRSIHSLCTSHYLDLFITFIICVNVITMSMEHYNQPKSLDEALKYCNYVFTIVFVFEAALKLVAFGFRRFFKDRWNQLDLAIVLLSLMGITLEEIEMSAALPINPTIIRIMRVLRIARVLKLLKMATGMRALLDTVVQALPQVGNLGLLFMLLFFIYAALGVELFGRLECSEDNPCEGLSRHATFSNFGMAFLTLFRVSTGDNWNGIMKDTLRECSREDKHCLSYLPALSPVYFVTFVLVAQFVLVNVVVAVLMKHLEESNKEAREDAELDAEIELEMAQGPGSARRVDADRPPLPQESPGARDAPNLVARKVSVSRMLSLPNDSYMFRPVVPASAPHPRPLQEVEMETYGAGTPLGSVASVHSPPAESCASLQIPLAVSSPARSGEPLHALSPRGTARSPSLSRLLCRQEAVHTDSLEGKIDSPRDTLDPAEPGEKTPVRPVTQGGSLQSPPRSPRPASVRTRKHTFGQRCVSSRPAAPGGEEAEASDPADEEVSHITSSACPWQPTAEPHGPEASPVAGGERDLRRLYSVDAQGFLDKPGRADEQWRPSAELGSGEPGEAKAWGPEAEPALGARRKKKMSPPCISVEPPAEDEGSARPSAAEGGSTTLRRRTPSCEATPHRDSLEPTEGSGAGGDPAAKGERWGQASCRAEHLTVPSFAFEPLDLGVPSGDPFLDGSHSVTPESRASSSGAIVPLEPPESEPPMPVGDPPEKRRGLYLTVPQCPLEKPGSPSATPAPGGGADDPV
Another assay addresses T4, Hexokinase HKDC1 (Homo sapiens, UniProt Q2TB90).
T4 sequence (Q2TB90 whole entry): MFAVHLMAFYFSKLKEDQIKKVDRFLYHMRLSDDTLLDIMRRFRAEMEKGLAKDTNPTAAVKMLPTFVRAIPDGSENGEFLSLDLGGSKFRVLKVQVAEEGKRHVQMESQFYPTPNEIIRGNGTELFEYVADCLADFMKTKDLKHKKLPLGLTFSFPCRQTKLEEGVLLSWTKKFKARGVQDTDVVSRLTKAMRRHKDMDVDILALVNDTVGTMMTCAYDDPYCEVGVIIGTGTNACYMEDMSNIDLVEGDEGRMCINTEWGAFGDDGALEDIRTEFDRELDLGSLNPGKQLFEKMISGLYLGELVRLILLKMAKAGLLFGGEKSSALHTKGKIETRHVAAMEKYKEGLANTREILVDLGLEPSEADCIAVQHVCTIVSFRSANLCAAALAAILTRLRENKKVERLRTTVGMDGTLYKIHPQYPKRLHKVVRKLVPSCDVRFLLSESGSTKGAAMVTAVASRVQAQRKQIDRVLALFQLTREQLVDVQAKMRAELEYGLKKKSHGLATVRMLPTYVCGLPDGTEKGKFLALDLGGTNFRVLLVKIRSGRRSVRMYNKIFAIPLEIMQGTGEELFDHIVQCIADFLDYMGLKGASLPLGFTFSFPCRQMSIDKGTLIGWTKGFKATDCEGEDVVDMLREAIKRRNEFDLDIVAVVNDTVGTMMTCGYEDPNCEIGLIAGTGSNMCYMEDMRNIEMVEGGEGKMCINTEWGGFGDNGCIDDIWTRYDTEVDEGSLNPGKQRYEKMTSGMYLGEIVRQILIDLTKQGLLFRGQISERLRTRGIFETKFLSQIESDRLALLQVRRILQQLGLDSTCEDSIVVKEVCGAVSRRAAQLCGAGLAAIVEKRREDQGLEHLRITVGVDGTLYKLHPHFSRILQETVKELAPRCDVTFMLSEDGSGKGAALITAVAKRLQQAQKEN
Briefly: HKDC1 hexokinase activators, dose response, biochemical, W721R variant (AID 504730). The assay is classed as functional.

The target in assay [8] is T5, Lysine-specific demethylase 4C (Homo sapiens, UniProt Q9H3R0).
T5 sequence (Q9H3R0 whole entry): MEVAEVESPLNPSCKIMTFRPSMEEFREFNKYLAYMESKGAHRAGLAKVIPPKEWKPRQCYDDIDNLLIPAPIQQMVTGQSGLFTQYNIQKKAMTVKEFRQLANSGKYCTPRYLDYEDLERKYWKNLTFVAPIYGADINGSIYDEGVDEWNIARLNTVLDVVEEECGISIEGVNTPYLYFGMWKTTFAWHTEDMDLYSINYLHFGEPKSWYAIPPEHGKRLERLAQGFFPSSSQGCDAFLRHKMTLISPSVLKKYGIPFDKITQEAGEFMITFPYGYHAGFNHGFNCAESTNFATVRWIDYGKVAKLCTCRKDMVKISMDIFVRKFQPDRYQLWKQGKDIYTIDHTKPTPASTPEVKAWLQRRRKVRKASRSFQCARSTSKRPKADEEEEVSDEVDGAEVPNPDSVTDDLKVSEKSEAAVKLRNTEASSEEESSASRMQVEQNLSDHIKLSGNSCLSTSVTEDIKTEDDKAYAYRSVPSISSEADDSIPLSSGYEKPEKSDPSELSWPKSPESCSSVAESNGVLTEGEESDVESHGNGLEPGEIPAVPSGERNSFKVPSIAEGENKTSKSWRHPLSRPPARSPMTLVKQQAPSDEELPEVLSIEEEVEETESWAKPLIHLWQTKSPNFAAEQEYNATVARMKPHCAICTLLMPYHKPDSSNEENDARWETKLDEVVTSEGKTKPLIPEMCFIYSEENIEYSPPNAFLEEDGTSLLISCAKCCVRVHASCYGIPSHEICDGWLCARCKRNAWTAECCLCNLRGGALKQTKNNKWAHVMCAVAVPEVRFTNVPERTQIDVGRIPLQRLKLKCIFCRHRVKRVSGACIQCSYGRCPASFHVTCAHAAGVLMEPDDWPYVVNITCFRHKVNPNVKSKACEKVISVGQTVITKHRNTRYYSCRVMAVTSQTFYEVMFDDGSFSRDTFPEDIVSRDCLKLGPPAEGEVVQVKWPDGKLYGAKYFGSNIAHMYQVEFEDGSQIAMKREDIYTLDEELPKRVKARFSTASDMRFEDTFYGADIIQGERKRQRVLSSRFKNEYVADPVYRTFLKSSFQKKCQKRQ
Briefly: GASC-1 (JMJD2C) histone demethylase inhibitors, dose response, biochemical, DELFIA europium, cherry-picked samples (AID 488835). The assay is classed as functional.

The target in a further assay is T6, Hexokinase-1 (Homo sapiens, UniProt P19367).
T6 sequence (P19367 whole entry): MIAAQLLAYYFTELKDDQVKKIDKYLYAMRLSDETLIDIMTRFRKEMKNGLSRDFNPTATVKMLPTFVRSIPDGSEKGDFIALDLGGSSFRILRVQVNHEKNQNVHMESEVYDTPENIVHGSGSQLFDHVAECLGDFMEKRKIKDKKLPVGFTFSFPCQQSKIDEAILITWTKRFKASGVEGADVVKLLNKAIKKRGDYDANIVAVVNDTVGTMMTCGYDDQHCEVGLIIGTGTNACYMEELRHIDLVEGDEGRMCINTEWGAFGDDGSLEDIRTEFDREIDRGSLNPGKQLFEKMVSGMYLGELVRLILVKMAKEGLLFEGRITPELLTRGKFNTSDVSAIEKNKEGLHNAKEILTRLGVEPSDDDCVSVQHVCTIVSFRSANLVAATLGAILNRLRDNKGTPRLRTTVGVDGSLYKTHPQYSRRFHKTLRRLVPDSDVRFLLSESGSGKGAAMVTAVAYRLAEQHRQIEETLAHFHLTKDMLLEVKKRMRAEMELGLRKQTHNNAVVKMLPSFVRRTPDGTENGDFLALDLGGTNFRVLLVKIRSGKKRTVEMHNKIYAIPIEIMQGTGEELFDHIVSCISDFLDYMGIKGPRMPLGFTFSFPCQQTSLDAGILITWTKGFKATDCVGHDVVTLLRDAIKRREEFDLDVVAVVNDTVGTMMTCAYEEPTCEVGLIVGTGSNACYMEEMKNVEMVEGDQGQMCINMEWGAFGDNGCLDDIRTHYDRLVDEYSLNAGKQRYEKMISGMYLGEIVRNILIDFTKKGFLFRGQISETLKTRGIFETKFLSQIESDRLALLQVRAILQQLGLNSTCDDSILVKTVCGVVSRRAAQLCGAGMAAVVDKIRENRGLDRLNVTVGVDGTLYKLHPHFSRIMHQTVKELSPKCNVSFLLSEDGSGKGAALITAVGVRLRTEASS
Briefly: hexokinase 1 activators, dose response, selectivity assay for HKDC1 activator project, biochemical (AID 504762). The assay is classed as functional.

The nature of assay [9]: inhibitors of SNCA 5'UTR-driven reporter translation, confirmation, H4 neuroglioma cells, luminescence (AID 1988). Format: functional, cell-based.
Assay [10] in a line: inhibitors of firefly luciferase expression or activity, dose response, H4 neuroglioma cells, luminescence (AID 1990). The assay is classed as functional, cell-based.
In a further assay the test system is Vero. As to the kind of experiment: host cell cytotoxicity of antiviral hits, dose response, cytotoxicity control for West Nile virus antiviral project, secondary assay (AID 1650). Format: functional. Particulars: Chlorocebus sabaeus.
Assay [11] can be described thus: Luminescence Cell-Based Dose Response HTS to Identify Inhibitors of 5'UTR Stem-Loop Driven Prion Protein mRNA Translation in H4 Neuroglioblastoma Cells. [Related pubchem assays: 1827 (Project Summary), 1813 (Primary HTS)]. The assay is classed as functional.
The next assay deals with SUMO-activating enzyme (Homo sapiens, UniProt Q9UBT2). Briefly: SUMOylation inhibitor hit validation, confirmation, SUMOylation inhibitor project, biochemical, AlphaScreen (AID 2018). Format: functional.
Sequence of SUMO-activating enzyme (Q9UBE0 whole entry): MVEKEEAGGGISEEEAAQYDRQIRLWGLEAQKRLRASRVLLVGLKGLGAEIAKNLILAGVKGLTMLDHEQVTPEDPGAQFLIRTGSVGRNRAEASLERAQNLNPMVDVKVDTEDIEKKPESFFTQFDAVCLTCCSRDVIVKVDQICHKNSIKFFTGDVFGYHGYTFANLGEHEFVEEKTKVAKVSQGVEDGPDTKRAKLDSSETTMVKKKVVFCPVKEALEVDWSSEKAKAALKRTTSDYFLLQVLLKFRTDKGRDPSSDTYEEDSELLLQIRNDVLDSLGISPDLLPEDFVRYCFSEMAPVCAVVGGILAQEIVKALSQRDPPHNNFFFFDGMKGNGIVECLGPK
Sequence of SUMO-activating enzyme (Q9UBT2 whole entry): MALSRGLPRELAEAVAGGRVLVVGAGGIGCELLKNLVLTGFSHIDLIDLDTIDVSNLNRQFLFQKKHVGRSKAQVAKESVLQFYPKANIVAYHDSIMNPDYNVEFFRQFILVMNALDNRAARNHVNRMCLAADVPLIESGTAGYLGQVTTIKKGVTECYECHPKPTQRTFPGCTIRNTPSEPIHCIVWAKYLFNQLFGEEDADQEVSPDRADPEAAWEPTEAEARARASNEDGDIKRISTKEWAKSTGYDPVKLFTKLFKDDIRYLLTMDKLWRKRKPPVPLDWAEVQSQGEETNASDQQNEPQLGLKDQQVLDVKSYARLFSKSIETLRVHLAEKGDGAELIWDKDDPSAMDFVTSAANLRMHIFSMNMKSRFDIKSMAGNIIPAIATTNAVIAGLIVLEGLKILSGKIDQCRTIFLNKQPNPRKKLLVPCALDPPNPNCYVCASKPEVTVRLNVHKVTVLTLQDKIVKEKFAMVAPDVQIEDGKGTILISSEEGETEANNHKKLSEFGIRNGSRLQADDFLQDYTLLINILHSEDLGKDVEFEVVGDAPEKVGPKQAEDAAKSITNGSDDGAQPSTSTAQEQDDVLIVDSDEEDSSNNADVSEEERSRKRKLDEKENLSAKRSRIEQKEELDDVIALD

Consider `CCOc1ccc(N(C(=O)c2snc(C(N)=O)c2N)C(CC)C(=O)NC2CCCC2)cc1` (stereo not given), for which the values for the concentration for half-maximal inhibition (IC50) (in [1]; on Bcl-2-related protein A1; in assay [2]) were 12.3 µM (active), > 20 µM (inactive) and 10.1 µM (active), respectively.

On to `Clc1ccc(COn2c(-c3ccc(Cl)cc3Cl)nc3ncccc32)cc1`, for which the concentration giving a half-maximal response (EC50) in [3] was 1.33 µM (active); in [4], 4.22 µM (active).

As to `O=C(CN1CCN(c2ncc(C(F)(F)F)cc2Cl)CC1)N1CCN(c2ncc(C(F)(F)F)cc2Cl)CC1`, the concentration giving a half-maximal response (EC50) in [5] was 49.1 µM (active); in assay [6], 48.4 µM (active); in [4], 3.35 µM (active); in [7], 8.68 µM (active).

With `CCC(=O)NC(=S)NNC(=O)c1ccc(NC(=O)c2ccccc2)cc1`, the 50% inhibitory concentration (IC50) was 3.81 µM (active) in assay [1], > 20 µM (inactive) at Bcl-2-related protein A1 and 11.4 µM (active) in assay [2].

Turning to `CC(C)(C)c1ccc(-c2csc(NNC3=NCCCCC3)n2)cc1`, the EC50 at Hexokinase HKDC1 was 38.1 µM (inactive); on Hexokinase-1 it was 47.4 µM (inactive). Besides, the AC50 in assay [8] is 22.3 µM (active).

For the compound `COc1ccc(NC(=O)C(=O)N/N=C\c2ccc(CNC(=O)C(=O)Nc3ccc(C)c(C)c3)o2)c(OC)c1`, the concentration for a half-maximal effect (EC50) was 5.4 µM (active) in assay [9], 6.59 µM (active) in [10] and 9.34 µM (active) in assay [11]. Moreover, in the assay on Vero, the CC50 is 15.1 µM (active). Further, on SUMO-activating enzyme, the IC50 was 30.4 µM (active).

The IC50 is the concentration at which inhibition is half-maximal. Broadly, the EC50 is the concentration giving half of the maximal effect. In general, AC50 refers to the concentration at which the activity in the assay is half-maximal. Broadly, the CC50 is the concentration giving 50% cytotoxicity.
